Holding throughout (type): in vivo
Test [1] has as its system large crabgrass. Kind of test: Foliar treatment test (7). Conditions: 300 g a.i./hectare, 20th day after spraying. As for the experimental part:
(§1) 90 Parts by weight of the above carrier and 10 parts by weight of each of Compounds obtained in the above Preparation Examples were uniformly pulverized and mixed to obtain herbicides. Further, for Herbicide Comparative Examples, comparative herbicides were prepared by uniformly pulverizing and mixing 90 parts by weight of the above carrier and 10 parts by weight of each of the following Compounds x, y, A, B and C.
(§2) (7) Biological Test (Foliar Treatment Test, Herbicide Examples 43-47 and Comparative Examples 11 and 12)
(§3) Seeds of weeds such as large crabgrass, barnyardgrass, green foxtail, cocklebur, velvetleaf and slender amaranth and seeds of corn, wheat and barley were sown in 1/5,000-are Wagner pots filled with upland soil, and covered with upland soil. The seeds were grown in a greenhouse, and at the stage of 1 to 2 leaves of these plants, a predetermined amount of the herbicide prepared in the above (1) was suspended in water and uniformly sprayed onto leaf and stalk portions at a rate of 200 liter/10 ares. Thereafter, the plants were grown in the greenhouse, and on the 20th day after the spraying treatment, the herbicide was evaluated for herbicidal efficacy.
(§4) The herbicidal efficacy and phytotoxcity to crops were shown on the basis of the following ratings.
(§5) The ratio of remaining plant weight to non-treated was determined on the basis of the ratio of remaining plant weight to non-treated=(remaining plant weight in treated plot/remaining plant weight in non-treated plot)×100. This is also applicable to biological tests hereinafter.

The subject of a further test is barnyardgrass. In words: Foliar treatment test (7). Conditions: 300 g a.i./hectare, 20th day after spraying. As for the experimental part: as §1, §2, §3, §4, §5
For test [2], the system named is cocklebur. In words: Foliar treatment test (7). Conditions: 300 g a.i./hectare, 20th day after spraying. The protocol:
as §1, §2, §3, §4, §5

In test [3] the test system is slender amaranth. Kind of test: Foliar treatment test (7). The settings on record: 300 g a.i./hectare, 20th day after spraying. As for the experimental part: as §1, §2, §3, §4, §5
In test [4] the test system is green foxtail. Kind of test: Foliar treatment test (7). The settings on record: 300 g a.i./hectare, 20th day after spraying. As for the experimental part:
as §1, §2, §3, §4, §5

The test system of test [5] is velvetleaf. In words: Foliar treatment test (7). Conditions: 300 g a.i./hectare, 20th day after spraying. The protocol: as §1, §2, §3, §4, §5
Test [6] relates to large crabgrass. In words: Upland soil treatment test (8). The settings on record: 300 g a.i./hectare, 20th day after spraying. As for the experimental part: as §1
(§6) (8) Biological Test (Upland Soil Treatment Test, Herbicide Examples 48-52 and Herbicide Comparative Examples 13 and 14)
(§7) Seeds of weeds such as large crabgrass, barnyard brass, green foxtail, cocklebur, velvetleaf and slender amarnth and seeds of corn, wheat and barley were sown in 1/5,000-are Wagner pots filled with upland soil, and covert with upland soil. Then, a predetermined amount of the herbicide prepared in the above (1) was suspended in water and uniformly sprayed onto the soil surface. Thereafter, the plant were grown in the greenhouse, and on the 20th day after the spraying treatment, the herbicide was evaluated for herbicidal efficacy.
(§8) The herbicidal efficacy and the phytotoxicity to crops are shown on the basis of the ratings described in (2) Foliar treatment test.

In test [7] the test system is barnyard grass. In words: Upland soil treatment test (8). Conditions: 300 g a.i./hectare, 20th day after spraying. As for the experimental part:
as §1, §6, §7, §8

Test [8] relates to cocklebur. In words: Upland soil treatment test (8). The settings on record: 300 g a.i./hectare, 20th day after spraying. As for the experimental part: as §1, §6, §7, §8
In test [9] the test system is slender amaranth. In words: Upland soil treatment test (8). Conditions: 300 g a.i./hectare, 20th day after spraying. As for the experimental part:
as §1, §6, §7, §8

The subject of test [10] is green foxtail. In words: Upland soil treatment test (8). The settings on record: 300 g a.i./hectare, 20th day after spraying. As for the experimental part: as §1, §6, §7, §8
Test [11] has as its system velvetleaf. Kind of test: Upland soil treatment test (8). Conditions: 300 g a.i./hectare, 20th day after spraying. The protocol:
as §1, §6, §7, §8

Test [12] relates to large crabgrass. In words: Foliar treatment test (2). Conditions: dosage 3 g a.i./are, 20th day after treatment. The protocol: as §1
(§9) (2) Biological Test (Foliar Treatment Test, Herbicide Examples 1 and 2 and Herbicide Comparative Examples 1 and 2)
as §3, with “barnyard grass,” for “barnyardgrass,”, “1˜2” for “1 to 2”, “are.” for “ares.”, “on” for “on the”, “the” for “the spraying”
as §4, §5

Test [13] relates to barnyard grass. Kind of test: Foliar treatment test (2). The settings on record: dosage 3 g a.i./are, 20th day after treatment. The protocol: as §1, §9
as §3, with “barnyard grass,” for “barnyardgrass,”, “1˜2” for “1 to 2”, “are.” for “ares.”, “on” for “on the”, “the” for “the spraying”
as §4, §5

The subject of test [14] is cocklebur. In words: Foliar treatment test (2). Conditions: dosage 3 g a.i./are, 20th day after treatment. As for the experimental part: as §1, §9
as §3, with “barnyard grass,” for “barnyardgrass,”, “1˜2” for “1 to 2”, “are.” for “ares.”, “on” for “on the”, “the” for “the spraying”
as §4, §5

Test [15] has as its system slender amaranth. Kind of test: Foliar treatment test (2). Conditions: dosage 3 g a.i./are, 20th day after treatment. As for the experimental part: as §1, §9
as §3, with “barnyard grass,” for “barnyardgrass,”, “1˜2” for “1 to 2”, “are.” for “ares.”, “on” for “on the”, “the” for “the spraying”
as §4, §5

Test [16] deals with green foxtail. Kind of test: Foliar treatment test (2). The settings on record: dosage 3 g a.i./are, 20th day after treatment. The protocol:
as §1, §9
as §3, with “barnyard grass,” for “barnyardgrass,”, “1˜2” for “1 to 2”, “are.” for “ares.”, “on” for “on the”, “the” for “the spraying”
as §4, §5

In test [17] the test system is velvetleaf. Kind of test: Foliar treatment test (2). Conditions: dosage 3 g a.i./are, 20th day after treatment. The protocol: as §1, §9
as §3, with “barnyard grass,” for “barnyardgrass,”, “1˜2” for “1 to 2”, “are.” for “ares.”, “on” for “on the”, “the” for “the spraying”
as §4, §5

Test [18] deals with large crabgrass. Kind of test: Upland soil treatment test (3). The settings on record: dosage 3 g a.i./are, 20th day after treatment. As for the experimental part:
as §1
(§10) (3) Biological Test (Upland Soil Treatment Test, Herbicide Examples 3 and 4 and Herbicide Comparative Examples 3 and 4)
(§11) Seeds of weeds such as large crabgrass, barnyardgrass, green foxtail, cocklebur, velvetleaf and slender amaranth and seeds of corn, wheat and barley were sown in 1/5,000-are Wagner pots filled with upland soil, and covered with upland soil. Then, a predetermined amount of the herbicide prepared in the above (1) was suspended in water and uniformly sprayed onto the soil surface. Thereafter, the plants were grown in the greenhouse, and on 20th day after the treatment, the herbicide was evaluated for herbicidal efficacy.
as §8

The test system of test [19] is barnyard grass. Kind of test: Upland soil treatment test (3). Conditions: dosage 3 g a.i./are, 20th day after treatment. The protocol: as §1, §10, §11, §8
The subject of test [20] is cocklebur. In words: Upland soil treatment test (3). The settings on record: dosage 3 g a.i./are, 20th day after treatment. As for the experimental part: as §1, §10, §11, §8
Test [21] concerns slender amaranth. In words: Upland soil treatment test (3). The settings on record: dosage 3 g a.i./are, 20th day after treatment. As for the experimental part: as §1, §10, §11, §8
The test system of test [22] is green foxtail. Kind of test: Upland soil treatment test (3). The settings on record: dosage 3 g a.i./are, 20th day after treatment. As for the experimental part:
as §1, §10, §11, §8

Test [23] relates to velvetleaf. In words: Upland soil treatment test (3). Conditions: dosage 3 g a.i./are, 20th day after treatment. As for the experimental part:
as §1, §10, §11, §8
Note: ranges in brackets are in %.

Turning to `CCn1ncc(C(=O)c2cc(C)c3c(c2C)CCCS3)c1O` [Compound 47-2, 5,8-dimethyl-6-(1-ethyl-5-hydroxypyrazol-4-yl)carbonylthiochroman], the results for the “Herbicidal Efficacy large crabgrass” value in the test on large crabgrass [1] and in the test with large crabgrass [6] were 5 (0) and 1 (61-80), respectively. For the same compound, the “Herbicidal Efficacy barnyard grass” value in the test with barnyardgrass was 2 (41-60); in the test with barnyard grass [7], 5 (0). Also, the “Herbicidal Efficacy cocklebur” value is reported as 5 (0) in the test with cocklebur [2] and 0 (81-100) with cocklebur [8]. Also, the “Herbicidal Efficacy slender amaranth” value with slender amaranth [3] and in the test with slender amaranth [9] was 5 (0) throughout. The “Herbicidal Efficacy green foxtail” value in the test with green foxtail [4] is recorded as 5 (0); in the test on green foxtail [10], 4 (1-20). Further, the “Herbicidal Efficacy velvetleaf” value in the test on velvetleaf [5] and in the test with velvetleaf [11] was 5 (0) throughout.

For the compound `CCn1ncc(C(=O)c2ccc(S(C)(=O)=O)cc2C)c1O` [y, reference compound], the “Herbicidal Efficacy large crabgrass” value in the test on large crabgrass [1] was 0 (81-100); with large crabgrass [12], 0 (81-100); in the test with large crabgrass [18], 3 (21-40); with large crabgrass [6], 3 (21-40). Also, the “Herbicidal Efficacy barnyard grass” value with barnyardgrass is 0 (81-100); in the test on barnyard grass [13], 0 (81-100); in the test on barnyard grass [19], 2 (41-60); in the test with barnyard grass [7] it was 3 (21-40). The “Herbicidal Efficacy cocklebur” value with cocklebur [2] is 3 (21-40); in the test with cocklebur [14] it was 3 (21-40); in the test on cocklebur [20], 0 (81-100); in the test on cocklebur [8] it was 0 (81-100). In addition, the “Herbicidal Efficacy slender amaranth” value with slender amaranth [3] is on record as 2 (41-60); in the test with slender amaranth [15] it was 2 (41-60); in the test on slender amaranth [21], 0 (81-100); with slender amaranth [9], 0 (81-100). Moreover, the “Herbicidal Efficacy green foxtail” value with green foxtail [4] is 0 (81-100); in the test with green foxtail [16] it was 0 (81-100); in the test on green foxtail [22], 2 (41-60); in the test on green foxtail [10], 2 (41-60). The “Herbicidal Efficacy velvetleaf” value with velvetleaf [5] was 3 (21-40); with velvetleaf [17] it was 3 (21-40); in the test with velvetleaf [23], 0 (81-100); in the test on velvetleaf [11] it was 0 (81-100).

(Values after patent US6677460B1, “Aromatic carboxylic acid bicyclic sulfur compounds” (Idemitsu Kosan Company, Limited, priority 1993, dated 2004).)
